# Reference: PubChem BioAssay (NCI)
#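 Where inhibition never reached the appropriate level, the endpoint shown equals the highest concentration tested. Otherwise, values were interpolated linearly from a five-concentration, 48-hour dose response in 96-well plates. TGI: concentration producing complete growth inhibition.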
# What was measured:
# Test in all cases: NCI-60 cell line screen, 48 h
# ACHN renal = tested on: ACHN renal
# NCI-H226 lung = tested on: NCI-H226 lung
# BT-549 breast = tested on: BT-549 breast
# HCT-116 colon = tested on: HCT-116 colon
# NCI/ADR-RES ovarian = tested on: NCI/ADR-RES ovarian
# NCI-H23 lung = tested on: NCI-H23 lung
# HCC-2998 colon = tested on: HCC-2998 colon
# RPMI-8226 leukemia = tested on: RPMI-8226 leukemia
# U251 CNS = tested on: U251 CNS
# MOLT-4 leukemia = tested on: MOLT-4 leukemia
# SN12C renal = tested on: SN12C renal
# SF-539 CNS = tested on: SF-539 CNS
# SK-OV-3 ovarian = tested on: SK-OV-3 ovarian
# OVCAR-5 ovarian = tested on: OVCAR-5 ovarian
# HS 578T breast = tested on: HS 578T breast
# SF-268 CNS = tested on: SF-268 CNS
# UACC-257 melanoma = tested on: UACC-257 melanoma
# SNB-19 CNS = tested on: SNB-19 CNS
# HT29 colon = tested on: HT29 colon
# LOX IMVI melanoma = tested on: LOX IMVI melanoma
# KM12 colon = tested on: KM12 colon
# SW-620 colon = tested on: SW-620 colon
# SNB-75 CNS = tested on: SNB-75 CNS
# MCF7 breast = tested on: MCF7 breast
# A498 renal = tested on: A498 renal
# HCT-15 colon = tested on: HCT-15 colon
# NCI-H460 lung = tested on: NCI-H460 lung
# HOP-62 NSCLC = tested on: HOP-62 NSCLC
# OVCAR-8 ovarian = tested on: OVCAR-8 ovarian
# NCI-H522 lung = tested on: NCI-H522 lung
# K-562 leukemia = tested on: K-562 leukemia
# MDA-MB-231 breast = tested on: MDA-MB-231 breast
# 786-0 renal = tested on: 786-0 renal
# M14 melanoma = tested on: M14 melanoma
# DU-145 prostate = tested on: DU-145 prostate
# PC-3 prostate = tested on: PC-3 prostate
# SK-MEL-2 melanoma = tested on: SK-MEL-2 melanoma
# T-47D breast = tested on: T-47D breast
# OVCAR-4 ovarian = tested on: OVCAR-4 ovarian
# A549 NSCLC = tested on: A549 NSCLC
# CAKI-1 renal = tested on: CAKI-1 renal
# SF-295 CNS = tested on: SF-295 CNS
# RXF 393 renal = tested on: RXF 393 renal
# HL-60(TB) leukemia = tested on: HL-60(TB) leukemia
# EKVX NSCLC = tested on: EKVX NSCLC
# TK-10 renal = tested on: TK-10 renal
# MDA-MB-435 = tested on: MDA-MB-435
# UACC-62 melanoma = tested on: UACC-62 melanoma
# SK-MEL-28 melanoma = tested on: SK-MEL-28 melanoma
# MDA-N = tested on: MDA-N
# HOP-92 NSCLC = tested on: HOP-92 NSCLC
# MALME-3M melanoma = tested on: MALME-3M melanoma
# IGROV1 ovarian = tested on: IGROV1 ovarian
# OVCAR-3 ovarian = tested on: OVCAR-3 ovarian
# CCRF-CEM leukemia = tested on: CCRF-CEM leukemia
# COLO 205 colon = tested on: COLO 205 colon
# UO-31 renal = tested on: UO-31 renal
# SR leukemia = tested on: SR leukemia
# SK-MEL-5 melanoma = tested on: SK-MEL-5 melanoma
smiles,measurement,setting,value
O=c1cc(N2CCCC2)[nH]c(=O)n1-c1ccc(F)cc1,TGI,ACHN renal,> 100 µM
same,TGI,NCI-H226 lung,50.8 µM
same,TGI,BT-549 breast,> 100 µM
same,TGI,HCT-116 colon,> 100 µM
same,TGI,NCI/ADR-RES ovarian,> 100 µM
same,TGI,NCI-H23 lung,> 100 µM
same,TGI,HCC-2998 colon,> 100 µM
same,TGI,RPMI-8226 leukemia,> 100 µM
same,TGI,U251 CNS,> 100 µM
same,TGI,MOLT-4 leukemia,> 100 µM
same,TGI,SN12C renal,> 100 µM
same,TGI,SF-539 CNS,> 100 µM
same,TGI,SK-OV-3 ovarian,> 100 µM
same,TGI,OVCAR-5 ovarian,> 100 µM
same,TGI,HS 578T breast,> 100 µM
same,TGI,SF-268 CNS,> 100 µM
same,TGI,UACC-257 melanoma,> 100 µM
same,TGI,SNB-19 CNS,> 100 µM
same,TGI,HT29 colon,> 100 µM
same,TGI,LOX IMVI melanoma,> 100 µM
same,TGI,KM12 colon,> 100 µM
same,TGI,SW-620 colon,> 100 µM
same,TGI,SNB-75 CNS,> 100 µM
same,TGI,MCF7 breast,> 100 µM
same,TGI,A498 renal,> 100 µM
same,TGI,HCT-15 colon,> 100 µM
same,TGI,NCI-H460 lung,> 100 µM
same,TGI,HOP-62 NSCLC,> 100 µM
same,TGI,OVCAR-8 ovarian,> 100 µM
same,TGI,NCI-H522 lung,> 100 µM
same,TGI,K-562 leukemia,> 100 µM
same,TGI,MDA-MB-231 breast,> 100 µM
same,TGI,786-0 renal,> 100 µM
same,TGI,M14 melanoma,> 100 µM
same,TGI,DU-145 prostate,> 100 µM
same,TGI,PC-3 prostate,> 100 µM
same,TGI,SK-MEL-2 melanoma,> 100 µM
same,TGI,T-47D breast,> 100 µM
same,TGI,OVCAR-4 ovarian,> 100 µM
same,TGI,A549 NSCLC,> 100 µM
same,TGI,CAKI-1 renal,> 100 µM
same,TGI,SF-295 CNS,> 100 µM
same,TGI,RXF 393 renal,> 100 µM
same,TGI,HL-60(TB) leukemia,> 100 µM
same,TGI,EKVX NSCLC,> 100 µM
same,TGI,TK-10 renal,> 100 µM
same,TGI,MDA-MB-435,> 100 µM
same,TGI,UACC-62 melanoma,> 100 µM
same,TGI,SK-MEL-28 melanoma,> 100 µM
same,TGI,MDA-N,> 100 µM
same,TGI,HOP-92 NSCLC,> 100 µM
same,TGI,MALME-3M melanoma,> 100 µM
same,TGI,IGROV1 ovarian,> 100 µM
same,TGI,OVCAR-3 ovarian,> 100 µM
same,TGI,CCRF-CEM leukemia,> 100 µM
same,TGI,COLO 205 colon,> 100 µM
O=C1CCCC(=O)N1n1c(Cc2ccccc2)n[nH]c1=O,TGI,ACHN renal,> 100 µM
same,TGI,NCI-H226 lung,> 100 µM
same,TGI,BT-549 breast,> 100 µM
same,TGI,HCT-116 colon,> 100 µM
same,TGI,NCI/ADR-RES ovarian,> 100 µM
same,TGI,NCI-H23 lung,> 100 µM
same,TGI,RPMI-8226 leukemia,> 100 µM
same,TGI,U251 CNS,> 100 µM
same,TGI,MOLT-4 leukemia,> 100 µM
same,TGI,SN12C renal,> 100 µM
same,TGI,UO-31 renal,> 100 µM
same,TGI,SK-OV-3 ovarian,> 100 µM
same,TGI,OVCAR-5 ovarian,> 100 µM
same,TGI,HS 578T breast,> 100 µM
same,TGI,SF-268 CNS,> 100 µM
same,TGI,UACC-257 melanoma,> 100 µM
same,TGI,HT29 colon,> 100 µM
same,TGI,LOX IMVI melanoma,> 100 µM
same,TGI,KM12 colon,> 100 µM
same,TGI,SW-620 colon,> 100 µM
same,TGI,SNB-75 CNS,> 100 µM
same,TGI,MCF7 breast,> 100 µM
same,TGI,A498 renal,> 100 µM
same,TGI,HCT-15 colon,> 100 µM
same,TGI,HOP-62 NSCLC,> 100 µM
same,TGI,OVCAR-8 ovarian,> 100 µM
same,TGI,NCI-H522 lung,> 100 µM
same,TGI,K-562 leukemia,> 100 µM
same,TGI,MDA-MB-231 breast,> 100 µM
same,TGI,786-0 renal,> 100 µM
same,TGI,M14 melanoma,> 100 µM
same,TGI,DU-145 prostate,> 100 µM
same,TGI,PC-3 prostate,> 100 µM
same,TGI,SK-MEL-2 melanoma,> 100 µM
same,TGI,SR leukemia,> 100 µM
same,TGI,T-47D breast,> 100 µM
same,TGI,OVCAR-4 ovarian,> 100 µM
same,TGI,A549 NSCLC,> 100 µM
same,TGI,CAKI-1 renal,> 100 µM
same,TGI,SF-295 CNS,> 100 µM
same,TGI,RXF 393 renal,> 100 µM
same,TGI,HL-60(TB) leukemia,> 100 µM
same,TGI,EKVX NSCLC,> 100 µM
same,TGI,SK-MEL-5 melanoma,> 100 µM
same,TGI,TK-10 renal,> 100 µM
same,TGI,MDA-MB-435,> 100 µM
same,TGI,UACC-62 melanoma,> 100 µM
same,TGI,SK-MEL-28 melanoma,> 100 µM
same,TGI,MDA-N,> 100 µM
same,TGI,HOP-92 NSCLC,> 100 µM
same,TGI,MALME-3M melanoma,> 100 µM
same,TGI,IGROV1 ovarian,> 100 µM
same,TGI,OVCAR-3 ovarian,> 100 µM
same,TGI,CCRF-CEM leukemia,> 100 µM
same,TGI,COLO 205 colon,> 100 µM
